{"source": "patent US9938235B2", "about": "“Compounds with neural protective effect, and preparation and use thereof” (GUANGZHOU MAGPIE PHARMACEUTICAL CO., LTD., priority 2014, dated 2018)", "key": {"[1]": {"system": "MPTP-induced abnormal behavior of mice of Parkinson's disease (PD) model", "assay": "Behavioral test in MPTP-induced mice of Parkinson's disease (PD) model", "format": "in vivo, C57BL/6J mice", "details": "MT-019 25, 75, 225 mg/kg once a day for seven days; behavioral test on day 7 of administration", "description": "(§1) Forty of C57BL/6J mice (male, 6 to 7 week-old) were feed for 7 days to adapt to the environment. On the day 8, animal model was started to prepare. 20 mg/kg MPTP was given via intraperitoneal injection for the model group and drug group, the injection was made every 2 hours, for four times in total, and an acute PD model was established. The equivalent amount of saline was given to the normal control group. From the day 2 of model establishment, the compound MT-019 and the positive control drug Rasagiline (1 mg/kg) were given. The doses of MT-019 were 25, 75, 225 mg/kg, respectively. The drug was given once a day, and a equal amount of saline was given to the normal control group and the MPTP model group, for seven days consecutively. On the day 7 of drug administration, behavioral test is performed."}, "TH neurons in SNpc area": {"system": "TH neurons in SNpc area", "assay": "TH neuron immunohistochemistry, SNpc area, MPTP-induced PD mice", "format": "in vivo, C57BL/6J mice", "description": "as §1\nAfter the above-mentioned animal model was set up and drug was given to the mice as described in Example 86, materials was taken at 12 hours after the last drug administration in the steps shown below: (1) With 10% chloral hydrate anesthesia in mice, the mice were fixed on an operating table, the chest thereof was quickly open; (2) […], […] the left ventricle, the right auricle was cut open, and a blood buffer was delivered to the heart from an infusion bottle with a volume of about 50 mL per mouse; (3) after the lavage fluid became colorless, the blood buffer was replaced with 4% paraformaldehyde solution in perfusion until the tail and limbs of the mice became stiff, wherein the infusion volume was about 100 mL per mouse; (4) the brain was taken by making the mice beheaded on a flat glass board, and redundant parts were carefully removed. The midbrain was placed and fixed in a centrifuge tube containing freshly prepared 4% paraformaldehydea. The samples were cut into paraffin sections through the process of dehydrating, transparent, paraffining and embedding steps. Each of the samples was cut with paraffin slicing machine into four microns slices. After fully unfold in water bath, the slices were put on glass plates and numbered. […]"}}, "data": [{"smiles": "C#CCNC(C)c1ccc(/C=[N+](\\[O-])C(C)(C)C)c(OC(=O)N(C)CC)c1", "note": "(stereo not shown) [MT-019]", "values": [{"measurement": "recovery effect to MPTP-induced abnormal behavior", "setting": "[1]", "value": "had recory effect"}, {"measurement": "protective effect to dopaminergic neurons compared with positive control Rasagiline", "setting": "TH neurons in SNpc area; 25 mg/kg MT-019 versus Rasagiline 1 mg/kg", "value": "equivalent to that of the positive control drug Rasagiline 1 mg/kg"}, {"measurement": "protective effect on SNpc area TH neurons (positive cell count in substantia nigra)", "setting": "TH neurons in SNpc area; MT-019 25, 75, 225 mg/kg once a day for seven days, material taken 12 hours after last administration", "value": "had protective effect"}, {"measurement": "dose dependence of protective effect on TH neurons", "setting": "TH neurons in SNpc area; doses 25, 75, 225 mg/kg", "value": "stronger effect was indicated with higher doses"}]}]}
